{"source": "paper PMC9653733", "about": "“Characterization of a Potent, Selective, and Safe Inhibitor, Ac15(Az8)2, in Reversing Multidrug Resistance Mediated by Breast Cancer Resistance Protein (BCRP/ABCG2)” (International Journal of Molecular Sciences, 2022)", "key": {"[1]": {"target": "T1, BCRP (S1M180 cells) (Homo sapiens, UniProt Q9UNQ0, R482G)", "T1 construct": "endogenous in cells; host or cells: S1M180 (human colon carcinoma, mitoxantrone-selected)", "T1 sequence (Q9UNQ0 1-655 R482G)": "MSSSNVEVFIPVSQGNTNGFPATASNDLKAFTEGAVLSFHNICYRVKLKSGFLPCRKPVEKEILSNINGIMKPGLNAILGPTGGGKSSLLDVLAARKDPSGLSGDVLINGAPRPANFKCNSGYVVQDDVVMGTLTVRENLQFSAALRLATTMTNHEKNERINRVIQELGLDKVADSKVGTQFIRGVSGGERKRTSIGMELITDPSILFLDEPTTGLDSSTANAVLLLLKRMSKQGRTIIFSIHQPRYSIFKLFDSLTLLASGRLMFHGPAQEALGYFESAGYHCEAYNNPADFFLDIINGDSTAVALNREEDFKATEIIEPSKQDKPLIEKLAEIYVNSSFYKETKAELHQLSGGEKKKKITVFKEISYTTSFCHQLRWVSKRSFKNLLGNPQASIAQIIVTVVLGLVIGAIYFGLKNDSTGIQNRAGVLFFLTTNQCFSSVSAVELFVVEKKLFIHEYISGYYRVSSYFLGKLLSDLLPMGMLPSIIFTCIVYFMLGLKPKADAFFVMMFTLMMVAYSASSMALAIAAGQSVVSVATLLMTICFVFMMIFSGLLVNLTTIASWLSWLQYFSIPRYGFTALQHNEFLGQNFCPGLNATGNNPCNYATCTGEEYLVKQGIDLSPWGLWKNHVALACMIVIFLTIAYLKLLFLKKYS", "assay": "Drug accumulation assay in S1M180", "assay_type": "cell-based", "protocol": "Figure 2 Effect of Ac15(Az8)2 on intracellular accumulation of BCRP-substrates in S1 and S1M180 cells. Cells were pre-treated with 0.1% DMSO, 100 nM, or 1000 nM Ac15(Az8)2 and then incubated with BCRP substrates. (A) Topotecan accumulation. (B) DOX accumulation. The intracellular level of drug after treatment was normalized to that of S1 cells after incubating with 0.1% DMSO. Student unpaired two-tailed t-test was conducted as indicated (** p < 0.01, *** p < 0.001). (C) To measure DOX efflux, S1M180 cells were pre-incubated with medium containing 20 μM DOX for 1 h at 37 °C. Cells were then washed and further incubated with or without 1 µM of Ac15(Az8)2. At 0, 5, 10, 30, 60, 120, and 180 min, the cells were harvested to measure the intracellular DOX level. (D) To determine intracellular Ac15(Az8)2 concentration, 1 × 10^7 cells were incubated with 1 µM of Ac15(Az8)2 at 37 °C for 2 h. Cells were then washed with ice-cold PBS. To the cell pellet, acetonitrile was added to lyse the cells, and the supernatant was saved for Ac15(Az8)2 determination using UPLC–MS/MS.\nBriefly, 1 × 10^6 cells of S1 and S1M180 cells were pre-incubated with 100 nM or 1000 nM Ac15(Az8)2 for 2 h and followed by 50 µM of topotecan or 20 µM of DOX for 1-h incubation. DMSO at 0.1% was used as a negative control. After incubation, the cells were spun down and washed with cold PBS, pH7.4 for 2 times and lysed with 100 μL of lysis buffer (0.75 M HCl, 0.2% Triton-X100 in isopropanol) with vigorous vortex. The lysate was further incubated at 37 °C for 20 min. After incubation, the lysate was spun down, and 100 μL of supernatant was saved and seeded into a black 96-well microtiter plate. The fluorescence level of DOX was determined by a fluorescence microplate reader (BMG Technologies) using excitation and an emission wavelength pair of 460 nm and 610 nm."}, "[2]": {"test_system": "S1 xenograft", "assay": "In vivo efficacy in parental S1 xenograft", "design": "species or system Balb/c nu nu mice", "details": "four times (700% without treatment)", "source_text": "(A) S1 xenograft. (B) S1M180 xenograft. There were 3 treatment groups in S1 and S1M180 xenograft model. Treatments were given as indicated by an arrow (↑). % of tumor volume reduction was compared among different treatment groups on days 55 and 71. a, b, and c = mean tumor volume of solvent control, topotecan alone, and combination treatment groups on day 55, respectively. d and e = mean tumor volume of topotecan alone and combination treatment groups on day 71. (C) Tumor weight of S1M180-bearing mice on termination day. (D) % change of tumor volume and tumor doubling time of S1M180 xenograft were determined on days 55 and 71. […] Number of animal death was monitored during the efficacy study. (E) Body weight of S1M180-bearing mice. (F) To measure plasma and intratumor level of topotecan, S1M180-bearing mice were administered with 45 mg/kg (I.P.) of Ac15(Az8)2 one hour prior to 6 mg/kg (I.P.) of topotecan administration. Five hours after topotecan administration, the mice were sacrificed. Plasma and tumor were collected for analyzing topotecan level using UPLC–MS/MS. Student’s unpaired two-tailed t-test was performed between combination group and topotecan alone group or solvent control group as indicated (* p < 0.05, ** p < 0.01, *** p < 0.001)."}, "[3]": {"target": "T2, BCRP-ATPase (Homo sapiens, UniProt Q9UNQ0, R482G)", "T2 construct": "endogenous in cells; host or cells: S1M180 (human colon carcinoma, mitoxantrone-selected)", "T2 sequence (Q9UNQ0 1-655 R482G)": "T1 sequence (Q9UNQ0 1-655 R482G)", "assay": "Vanadate-sensitive BCRP-ATPase activity (S1M180 microsome fraction)", "assay_type": "biochemical", "details": "2.5 mM ATP, 1 h", "quoted_text": "Ouabain (Na^+/K^+-ATPase inhibitor) and sodium azide (F-type ATPase inhibitor) were added to S1M180 microsome fraction to inhibit non-ABC transporter ATPase activities. Sodium orthovanadate inhibits ABC transporter ATPase activity and is used to calculate vanadate-ensitive activity by subtraction from the total ATPase activity (without sodium orthovanadate). […] After reaction was stopped, inorganic phosphate level was determined using colorimetry method. The percentages of vanadate-sensitive BCRP-ATPase activity were shown as mean ± S.D.\nThe membrane fraction of S1M180 cells was prepared as previously reported [48]. […] The absorbance of 655 nm was measured by CLARIOstar® microplate reader (BMG). […]"}, "[4]": {"target": "T3, BCRP (Homo sapiens, UniProt Q9UNQ0, R482G)", "T3 construct": "endogenous in cells; host or cells: S1M180 (human colon carcinoma, mitoxantrone-selected)", "T3 sequence (Q9UNQ0 1-655 R482G)": "T1 sequence (Q9UNQ0 1-655 R482G)", "assay": "Lineweaver-Burk and Dixon plots of DOX retention in S1M180", "assay_type": "cell-based", "details": "for Ki: S1M180, DOX retention", "protocol": "We investigated the biochemical mechanism by which Ac15(Az8)2 inhibits BCRP. S1M180 cells were incubated with DOX and Ac15(Az8)2 at different concentrations. DOX accumulation was measured and analyzed by Lineweaver–Burk plot. […] Moreover, it is implied that DOX and Ac15(Az8)2 are not binding to the same site on BCRP. The apparent inhibition constant (Ki) can be calculated by either the Lineweaver–Burk plot (inset of Figure 5A) or the Dixon plot (Figure 5B).\nFigure 5 Lineweaver–Burk and Dixon plot for Ac15(Az8)2 and DOX. S1M180 cells were incubated with different concentrations of Ac15(Az8)2 and DOX. The cells were pre-treated with Ac15(Az8)2 for 2 h and then incubated with DOX for 1 h at 37 °C. After incubation, the cells were washed with ice-cold PBS, and the intracellular DOX level was measured. (A) In Lineweaver–Burk plot, the reciprocal of DOX retention rate (V, μM/min/500,000 cells) is plotted against reciprocal of DOX concentration used. Six lines of Ac15(Az8)2 pass through the same intercepts at the x-axis, which is Km for the DOX. […] (B) In Dixon plot, reciprocal of DOX retention rate (1/V) was plotted against concentration of Ac15(Az8)2."}, "[5]": {"details": "100 nM or 1000 nM Ac15(Az8)2, 2 h pre-incubation"}}, "note": "Like-named read-outs stand apart in the source and are kept apart here.", "data": [{"smiles": "CC[C@@]1(O)C(=O)OCc2c1cc1n(c2=O)Cc2cc3c(CN(C)C)c(O)ccc3nc2-1", "note": "[topotecan]", "values": [{"measurement": "Topotecan accumulation in S1M180, fold less than parental S1", "setting": "[1]; 50 µM topotecan, 1 h, p < 0.01", "value": "about 2.1 fold"}, {"measurement": "Xenograft volume on the 11th day", "setting": "[2]; topotecan alone 2 mg/kg I.P. every other day", "value": 200, "unit": "%"}]}, {"smiles": "COC(=O)c1cccc(COc2c(-c3ccc(OCCOCCn4cc(CN(Cc5ccccc5)Cc5cn(CCOCCOc6ccc(-c7oc8ccccc8c(=O)c7OCc7cccc(C(=O)OC)c7)cc6)nn5)nn4)cc3)oc3ccccc3c2=O)c1", "note": "[Ac15(Az8)2]", "values": [{"measurement": "IC50", "setting": "[3]", "value": 0.0075, "unit": "µM"}, {"measurement": "Effect on DOX accumulation in S1M180", "setting": "[1]; [5]", "value": "increase the accumulation"}, {"measurement": "Effect on topotecan accumulation in S1M180", "setting": "[1]; [5]", "value": "increase the accumulation"}, {"measurement": "Xenograft volume on the 11th day", "setting": "[2]; topotecan 2 mg/kg + 45 mg/kg Ac15(Az8)2 I.P. every other day", "value": 200, "unit": "%"}, {"measurement": "Ki", "setting": "[4]; Lineweaver–Burk and Dixon, read-out: Apparent inhibition constant (Ki), range of both plots", "value": "0.23 to 0.295", "unit": "µM"}, {"measurement": "Ki", "setting": "[4]; read-out: Ki, Dixon plot", "value": 0.23, "unit": "µM"}, {"measurement": "Ki", "setting": "[4]; slope of double reciprocal plots vs concentration, read-out: Apparent Ki, Lineweaver–Burk plot", "value": 0.295, "unit": "µM"}, {"measurement": "Relationship with DOX in binding to BCRP", "setting": "[4]; did not affect Km but reduced Vmax", "value": "non-competitive"}]}]}
